The values that follow come from patent publication US20260159474A1, “Aminoindane Compounds and Compositions and Methods of Their Therapeutic Use” (Solvonis Therapeutics Ireland Holdings Limited, priority 2021, published 2026).

The test system of this experiment is extracellular noradrenaline (NE) in the nucleus accumbens (NAcc). Briefly: In vivo microdialysis in rat nucleus accumbens, norepinephrine. On the set-up: species or system Sprague Dawley rats. The note with it: 7 mg/kg I.P.; for time of peak NE level / peak NE level: rat NAcc microdialysis; for peak NE level: baseline = 100%; for Norepinephrine (NE) level (% from baseline): rat NAcc. As to the method: Methods and Procedure: This study was conducted in compliance with previously described procedures to assure data integrity, adherence to GLP regulations, and standard preclinical study and surgery procedures. The in vivo microdialysis technique was applied to measure the over-time variations of DA, 5-HT, and NE extracellular (EC) concentrations in conscious, freely-moving Sprague Dawley rats. Levels of the neurotransmitters in microdialysis samples were determined using LC-MS/MS analysis. The experiment was also conducted with MDMA for comparative purposes.
As it relates to cannula implantation, the rats were anesthetized with isoflurane 4% in oxygen (2-2.5 L/min), then the isoflurane concentration 2-2.5% was maintained via a nose cone adapted to the stereotaxic apparatus. The rats were treated with meloxicam (0.2 mg/kg, subcutaneously, sc; Meloxidolor) and amoxicilline (150 mg/kg, sc, Betamox LA). The skull was then shaved and disinfected. Rats were then placed in a stereotaxic apparatus for small animals. One vertical guide cannula was inserted through a 1 mm hole drilled on the exposed skull. Coordinates, with respect to the bregma to target specific brain areas, followed indications from stereotaxic atlas of the rat brain. Specifically a guide cannula (MAB 4.12.IC, Agn Tho's AB, Lidinga, Sweden) was inserted in the NAcc (anteroposterior+1.6; lateral −1.6; dorsoventral −6.0). The guide cannula was then secured with dental cement and 2-4 screws. At the end of the surgery the animal was isolated in a single cage during recovery, for a period of at least one week, during which animal health conditions were checked twice daily and the weight recorded twice a week. Animals continued to be housed singly throughout the experiment. One day before the experiment the cannula stylet was removed and a microdialysis probe with a dialyzing length of 2 mm (MAB 4.12.2 Cu, Agn Tho's AB, Lidingo, Sweden) was inserted. Probes can be re-used 2 times for 2 experimental sessions after appropriate cleaning with fresh milliQ water.
Post-surgery, the rats were maintained in a heating chamber prior to waking up in order to avoid hypothermia that could be caused by anaesthesia. 5 mL of physiologic solution was subcutaneously administered immediately after surgery, and once/day for 2-3 days, if signs of dehydration are noticed. Meloxicam (Meloxidolor) 0.2 mg/kg was again administered subcutaneously the day after surgery as well as after 48 h after surgery together with Amoxicilline Long Acting (Betamox LA) 150 mg/kg. Health status and body weight was checked every day during the first week.
The animals were treated with the therapeutic compounds, and MDMA, or their vehicle (saline) according to a Latin square design over 5 separate experimental days (one day/week). The treatments were administered in a volume of 1 mL/kg intraperitoneally.
On the day of the experiment, each animal was taken into the laboratory in its home cage. Inlet tubing of the probe was attached to a dual quartz-lined two channel liquid swivel mounted on a low mass spring counterbalance arm which, in turn, was connected to a gas-tight syringe on a microinfusion pump. […] An equilibration period of about two hours of perfusion was allowed before collecting samples. Following the equilibration period, 4 basal samples were collected for each experimental animal followed by further 10 post-treatment samples. Samples were collected every 20 minutes (up to 3 hours and 20 minutes post-treatment) by means of a refrigerated auto-sampler (Univentor 820 Microsampler, AgnTho's, Sweden) maintained at +8 “C. At the end of all experimental sessions, 2 μL of 0.1% methylene blue solution was injected through the microdialysis probe, animals were euthanized, and their brains removed to confirm the correct probe-position.
As mentioned, the concentration of DA, 5-HT and NE in CSF samples were determined using an optimized method based on LC-MS/MS analysis. […]

Molecules are shown by their SMILES.

In the case of `COC(=O)c1ccc2c(c1)CC(N)C2` (stereo not drawn) [CMP-405, 2-aminoindane-5-methylcarboxylate], the “time of peak NE level” value came out at 60 min and the “peak NE level” value worked out at 188%. For the same compound, the “Norepinephrine (NE) level (% from baseline)” value (0 min (basal sample)) stood at 101%. The “Norepinephrine (NE) level (% from baseline)” value (20 min post-admin) came out at 106%. In addition, the “Norepinephrine (NE) level (% from baseline)” value (40 min post-admin) amounted to 167%. The “Norepinephrine (NE) level (% from baseline)” value (60 min post-admin) was found to be 188%. Moreover, for the setting “80 min post-admin”, the “Norepinephrine (NE) level (% from baseline)” value stood at 147%. The “Norepinephrine (NE) level (% from baseline)” value (100 min post-admin) came to 136%. For the same compound, the “Norepinephrine (NE) level (% from baseline)” value (120 min post-admin) is reported as 125%. Further, the “Norepinephrine (NE) level (% from baseline)” value (140 min post-admin) is 107%. Besides, the “Norepinephrine (NE) level (% from baseline)” value (160 min post-admin) is 122%. Moreover, where the note is “180 min post-admin”, the “Norepinephrine (NE) level (% from baseline)” value was determined as 105%. Besides, the “Norepinephrine (NE) level (% from baseline)” value (200 min post-admin) is reported as 106%. The “Norepinephrine (NE) level (% from baseline)” value (−20 min (basal sample)) was 99%.
For the compound `CNC(C)Cc1ccc2c(c1)OCO2` (stereo not drawn) [MDMA], the “time of peak NE level” value is recorded as 40 min and the “peak NE level” value was 473%. Also, the “Norepinephrine (NE) level (% from baseline)” value (0 min (basal sample)) was found to be 100%. For the same compound, the “Norepinephrine (NE) level (% from baseline)” value (20 min post-admin) was found to be 113%. Also, for the setting “40 min post-admin”, the “Norepinephrine (NE) level (% from baseline)” value was determined as 473%. For the same compound, the “Norepinephrine (NE) level (% from baseline)” value (60 min post-admin) is on record as 457%. Moreover, where the note is “80 min post-admin”, the “Norepinephrine (NE) level (% from baseline)” value is reported as 375%. Also, the “Norepinephrine (NE) level (% from baseline)” value (100 min post-admin) came out at 348%. For the same compound, the “Norepinephrine (NE) level (% from baseline)” value (120 min post-admin) amounted to 350%. Also, the “Norepinephrine (NE) level (% from baseline)” value (140 min post-admin) is given as 320%. Moreover, the “Norepinephrine (NE) level (% from baseline)” value (160 min post-admin) is 295%. Also, under “180 min post-admin”, the “Norepinephrine (NE) level (% from baseline)” value was found to be 275%. Also, under “200 min post-admin”, the “Norepinephrine (NE) level (% from baseline)” value stood at 255%. In addition, for the setting “−20 min (basal sample)”, the “Norepinephrine (NE) level (% from baseline)” value is reported as 100%.
As for `COc1ccc2c(c1)CC(N)C2` (stereo not drawn) [MEAI, 5-methoxy-2-aminoindane], the “time of peak NE level” value is recorded as 40 min and the “peak NE level” value is 366%. In addition, the “Norepinephrine (NE) level (% from baseline)” value (0 min (basal sample)) came to 97%. The “Norepinephrine (NE) level (% from baseline)” value (20 min post-admin) was 132%. For the same compound, the “Norepinephrine (NE) level (% from baseline)” value (40 min post-admin) turned out to be 366%. Also, where the note is “60 min post-admin”, the “Norepinephrine (NE) level (% from baseline)” value is 295%. In addition, the “Norepinephrine (NE) level (% from baseline)” value (80 min post-admin) came to 208%. Further, the “Norepinephrine (NE) level (% from baseline)” value (100 min post-admin) stood at 194%. Further, the “Norepinephrine (NE) level (% from baseline)” value (120 min post-admin) is listed as 187%. Besides, for the setting “140 min post-admin”, the “Norepinephrine (NE) level (% from baseline)” value was 167%. Further, the “Norepinephrine (NE) level (% from baseline)” value (160 min post-admin) is listed as 140%. For the setting “180 min post-admin”, the “Norepinephrine (NE) level (% from baseline)” value was found to be 149%. Also, under “200 min post-admin”, the “Norepinephrine (NE) level (% from baseline)” value turned out to be 133%. Also, the “Norepinephrine (NE) level (% from baseline)” value (−20 min (basal sample)) was 103%.
